Patent US20050148518A1, “Anti-bacterial compositions” (Rowett Research Institute, priority 2002, published 2005)

How the values were obtained:
[1] = system: S. aureus; assay: Growth inhibition monitored by spectrophotometer (650 nm); type: cell-based, Staphylococcus aureus; details: Coumarin 1.25 mM, L-lactate 5 mM
[2] = system: 8 E. coli O157:H7 strains and 8 non-O157:H7 E. coli strains; type: cell-based
[3] = system: Listeria monocytogenes NCTC 11994; assay: Viability (killing) of L. monocytogenes treated with L-lactate and Coumarin; type: cell-based
[4] = system: L. monocytogenes; assay: Growth inhibition monitored by spectrophotometer (650 nm); type: cell-based, Listeria monocytogenes; details: 1.25 mM Coumarin; L-lactate concentration not given
[5] = system: methicillin-resistant Staphylococcus aureus (MRSA) strain NCTC 10442; assay: Viability (killing) of MRSA treated with L-lactate and Coumarin; type: cell-based
[6] = system: E. coli O157:H7 strain NCTC 12900; assay: Growth inhibition monitored by spectrophotometer (650 nm); type: cell-based, Escherichia coli O157:H7; details: 37° C.; for growth compared to the control (FIG. 13B): 0.625 mM Coumarin, 18 mM L-lactate; for growth compared to the control (FIG. 13A): 12.5 mM L-lactate, 1.25 mM esculetin
[7] = system: E. coli O157:H7 strain NCTC 12900; type: cell-based, Escherichia coli O157:H7; details: for effect on viability of single compounds (FIG. 6A-C): L-lactate 50 mM or coumarin 7.5 mM alone; for dose dependence of inactivation (FIG. 1): L-lactate 50-200 mM, D-lactate 100-200 mM; for effect on viability of single compounds (FIG. 7A): citrate 50 mM or esculetin 7.5 mM alone
[8] = system: Salmonella enteritidis NCTC 4444; assay: Viability (killing) of S. enteritidis treated with L-lactate and Coumarin; type: cell-based
[9] = system: S. enteritidis; assay: Growth inhibition monitored by spectrophotometer (650 nm); type: cell-based, Salmonella enteritidis; details: Coumarin 2 mM; L-lactate concentration not given

L-lactate
growth (FIG. 13E) [1]: inhibited
inactivation (percentage survival), L-lactate versus D-lactate (FIG. 3) ([2]; pH 3.8): much greater than that of D-lactate for all the E. coli strains tested
reduction in viability (FIG. 8B) ([3]; L-lactate 50 mM alone, 8 hours, pH 3.8): greater than 5 log10 units
growth (FIG. 13D) [4]: inhibited growth slightly
reduction in viability (FIG. 8C) ([5]; L-lactate 50 mM, Coumarin 10 mM, 8 hours, pH 3.8): greater than 3 log10 units
reduction in viability (FIG. 11D) ([5]; L-lactate 2%, Coumarin 6.8 mM, 60 minutes): approximately 2 log10 units
growth compared to the control (FIG. 13B) [6]: inhibited substantially
growth compared to the control (FIG. 13A) [6]: caused a small reduction in the growth
antimicrobial effect, L-lactate versus D-lactate (FIG. 2) ([7]; 100 mM each, pH 3.8, 37° C.): exerted a greater antimicrobial effect than 100 mM D-lactate
effect on viability of single compounds (FIG. 6A-C) ([7]; 37° C., pH 3.8): neither L-lactate (50 mM) nor scopoletin (7.5 mM) on their own affected the viability
decrease in viability (FIG. 11A) ([7]; L-lactate 2%, Coumarin 6.8 mM, 10 minutes): approximately 3 log10 units
effectiveness at reducing numbers, L-lactate versus D-lactate (FIG. 1) ([7]; L-lactate 50, 100, 150 or 200 mM, D-lactate 100, 150 or 200 mM, pH 3.8, 37° C.): more effective at reducing numbers of the E. coli O157:H7 strain NCTC 12900 than D-lactate at all concentrations measured
dose dependence of inactivation (FIG. 1) ([7]; pH 3.8, 37° C.): dose-dependent

O=c1ccc2cc(O)c(O)cc2o1 [esculetin]
growth compared to the control (FIG. 13A) [6]: caused a small reduction in the growth
effect on viability of single compounds (FIG. 7A) ([7]; pH 3.8): neither citrate (50 mM) nor esculetin (7.5 mM) when used individually affected the viability

O=C(O)c1ccccc1 [benzoate]
reduction in numbers / viability (FIG. 7A, 7B) ([7]; citrate 50 mM, benzoate 25 mM, esculetin 7.5 mM, 8 hours, pH 3.8): approximately 4 log10 units

COc1cc2ccc(=O)oc2cc1O [scopoletin]
effect on viability of single compounds (FIG. 6A-C) ([7]; 37° C., pH 3.8): neither L-lactate (50 mM) nor scopoletin (7.5 mM) on their own affected the viability

O=c1ccc2ccc(O)cc2o1 [umbelliferone]
effect on viability of single compounds (FIG. 6A-C) ([7]; 37° C., pH 3.8): neither 7.5 mM Coumarin (FIG. 6B) nor 7.5 mM umbelliferone (FIG. 6C) affected viability

O=C(O)CC(O)(CC(=O)O)C(=O)O [citrate]
effect on viability of single compounds (FIG. 7A) ([7]; pH 3.8): neither citrate (50 mM) nor esculetin (7.5 mM) when used individually affected the viability

C[C@@H](O)C(=O)O [D-lactate, reference compound]
dose dependence of inactivation (FIG. 1) ([7]; pH 3.8, 37° C.): dose-dependent

O=c1ccc2ccccc2o1 [Coumarin, 1,2 benzopyrone]
effect on viability (FIG. 11B) ([8]; Coumarin 6.8 mM alone): had no effect on the viability
effect on viability (FIG. 8A) ([8]; Coumarin 10 mM alone, pH 3.8): did not affect the viability
growth (FIG. 13E) [1]: inhibited
growth (FIG. 13C) [9]: inhibited the growth of S. enteritidis slightly
survival (FIG. 10) [2]: had little effect on the survival
effect on viability (FIG. 11C) ([3]; Coumarin 6.8 mM alone): had no effect on the viability
effect on viability (FIG. 8B) ([3]; Coumarin 10 mM alone, pH 3.8): had no effect on viability
growth (FIG. 13D) [4]: did not affect the growth of L. monocytogenes
effect on viability (FIG. 11D) ([5]; Coumarin 6.8 mM alone): had no effect on the viability
growth compared to the control (FIG. 13B) [6]: only slightly reduced the extent of growth
effect on viability (FIG. 11A) ([7]; Coumarin 6.8 mM alone): had no effect on the viability
effect on viability of single compounds (FIG. 6A-C) ([7]; 37° C., pH 3.8): neither 7.5 mM Coumarin (FIG. 6B) nor 7.5 mM umbelliferone (FIG. 6C) affected viability
